Assay results: patent US8877244B2, “Stabilized pesticidal granules” (priority 2006, dated 2014)

Experiments:
[1] = Stability comparison: accelerated temperature storage of coated granules, a.i. extracted and assayed by HPLC; type: physicochemical; settings: storage at 38° C. and 50° C.
Experimental: The materials prepared in examples 1-7 are tested for stability as follows: • 1) After obtaining the coated granules according to the procedures given above, material is divided up into samples by using a standard “Riffler”, which is used to generate statistically representative samples from a large batch. • 2) The individual “riffled” samples are put on accelerated temperature storage (in ovens) at 38° C. and 50° C. • 3) Samples are pulled from each temperature at regular intervals, and assayed for 2-(2′-nitro-4′-methylsulphonylbenzoyl)-1,3-cyclohexanedione acid concentration (weight %). Commonly 2-3 samples are pulled from each temperature, each week. • 4) The pulled samples are analyzed for stability by extraction of the a.i. material from the granules and assayed by HPLC.

[2] = system: large crabgrass (Digitaria sanguinalis); assay: Biology comparison: control of large crabgrass by stored granule samples; type: in vivo; settings: after storage for 1 year at room temperature or 19 days at 50° C.
Text: Callisto® (a commercially available liquid formulation containing 4 lbs/gal of the active ingredient 2-(2′-nitro-4′-methylsulphonylbenzoyl)-1,3-cyclohexanedione acid) (Syngenta Crop Protection, Inc.) is sprayed onto fertilizer granules (Scotts® Turf Builder® Lawn Fertilizer 29-3-4 (with added nutrients)) (The Scotts Co.) in an amount sufficient to achieve an average a.i. loading of 0.082% by weight. Sample 2 is a control sample that is freshly prepared and has not been stored. Sample 3 is stored for 1 year at ambient room temperature. Sample 4 is stored under accelerated conditions (19 days at 50° C.).
A spray solution of Example 1 is sprayed onto fertilizer granules (Scotts® Turf Builder® Lawn Fertilizer 29-3-4 (with added nutrients)) (The Scotts Co.) in an amount sufficient to achieve an average a.i. loading of 0.082% by weight. Sample 5 is stored for 1 year at ambient room temperature. Sample 6 is stored under accelerated conditions (19 days at 50° C.).
All samples are applied to large crabgrass (Digitaria sanguinalis) at 224 g ai/ha, and control assessed 10 days after treatment. Sample 1 is an untreated control.

2-(2′-nitro-4′-methylsulphonylbenzoyl)-1,3-cyclohexanedione copper chelate
stability on granules compared with the unchelated (acid) form [1]: improved stability | control of large crabgrass compared with the unchelated (acid) form on fertiliser granules [2]: improved control of large crabgrass
